Measurements taken from US8486431B2 (priority 2005, dated 2013).

Experiments:
[1] = test system: Type A influenza strain A/PR8 (H1N1); design: species or system mice; conditions: mouse, in vivo
[2] = target: T1, glucose-6-phosphate dehydrogenase (G6PD) (Saccharomyces cerevisiae, UniProt P11412); assay: Protein denaturation experiment: enzyme activity of G6PD reacted with chlorine dioxide; type: biochemical, yeast; conditions: 0.07 ppm chlorine dioxide in PBS pH7; 25° C., 2 minutes; compared with 0 ppm
T1 construct: purchased Sigma Corp
Procedure: The enzyme activity of G6PD was determined by observing absorption of NADPH by a spectral photometer, with using NADP and glucose-phosphoric acid as the substrate. Specific reaction conditions were set according to the manufacturer's (Sigma Corp.) instructions.
The concentration values on the horizontal axis are shown as being converted into the unit of ppm. The “specific activity” on the vertical axis represents enzyme activity (unit/mg) per 1 mg of protein

[3] = test system: Type A influenza strain A/PR8 (H1N1); conditions: mouse, in vivo

T1 sequence (P11412 whole entry): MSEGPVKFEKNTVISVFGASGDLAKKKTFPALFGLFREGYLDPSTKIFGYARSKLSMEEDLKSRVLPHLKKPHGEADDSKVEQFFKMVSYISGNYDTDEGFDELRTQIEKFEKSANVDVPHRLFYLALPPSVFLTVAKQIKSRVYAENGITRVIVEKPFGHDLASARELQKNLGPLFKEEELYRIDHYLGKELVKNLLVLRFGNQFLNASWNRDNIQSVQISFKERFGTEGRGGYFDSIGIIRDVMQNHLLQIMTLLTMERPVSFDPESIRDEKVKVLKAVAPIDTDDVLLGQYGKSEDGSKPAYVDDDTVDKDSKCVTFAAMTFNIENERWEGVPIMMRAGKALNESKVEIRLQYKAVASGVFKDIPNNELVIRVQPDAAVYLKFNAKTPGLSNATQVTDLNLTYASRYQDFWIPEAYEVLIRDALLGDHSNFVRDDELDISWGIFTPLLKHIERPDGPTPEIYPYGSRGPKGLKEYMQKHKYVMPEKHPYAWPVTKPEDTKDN

Compound: [O][Cl+][O-] [chlorine dioxide]
- Total virus amount in lung tissues on Day 3 after 10 LD50 virus exposure (TClD50 values) [1]: 10^3 TClD50
- lung virus amount relative to that of the control group (0 ppm group) [1]: 5%
- total virus amounts in lung after delayed administration [1]: smaller than expected
- reduction in the enzyme activity of G6PD [2]: about 60%
- chlorine dioxide concentration required for preventing influenza virus infection [3]: 0.0001 ppm
- chlorine dioxide gas concentration effective for influenza onset inhibition [3]: at least 0.05 ppm
- deaths compared with 0 ppm group [3]: deaths occurred with delay
- number of onsets of influenza and virus amount in the lung versus control group (0 ppm) [3]: no significant difference was found
